These results are taken from patent publication US20200039930A1, “PROLINE AMIDE COMPOUNDS AND THEIR AZETIDINE ANALOGUES CARRYING A SPECIFICALLY SUBSTITUTED BENZYL RADICAL” (AbbVie Deutschland GmbH & Co. KG, priority 2017, published 2020).

Bounds are passed on as bounds.

The target in data set [1] is T1, 5-HT2C receptor (Homo sapiens, UniProt P28335).
T1 construct: host or cells: U2OS
The data set can be described thus: Human 5-HT2C functional assay (beta-arrestin2 recruitment, U2OS_HTR2C_β-Arrestin cells). The class given is cell-based. The following applies: compounds used as acid addition salts; for EC50: U2OS_HTR2C_β-Arrestin cells, 1.5 h incubation, read-out: EC50 5-HT2C (potency in functional assay); for Emax: relative efficacy vs response to 10 µM 5-HT or maximal effect of 5-HT (100%). The protocol:
The functional activity of compounds of formula I was assayed by incubation with U2OS_HTR2C_β-Arrestin cells (DiscoverX, 93-0289C3) to induce beta-arrestin2 recruitment to the 5-HT2C receptor. The agonist-induced recruitment and proximity of the receptor and beta-arrestin2 leads to complementation and formation of active β-galactosidase. The enzyme complementation results in enzyme activity, which is measured following the termination of the agonist incubation using DiscoveRx's detection reagent, which contains a chemiluminescent substrate which produces a high intensity signal. Cells were plated and a medium-change to a 1% serum containing medium was performed 24 h later. The next day, test compounds were added and incubated for 1.5 h before addition of detection reagent.
The response produced was measured and compared with the response produced by 10 [mu]M 5-HT or the maximal effect induced by 5-HT (defined as 100%) to which it was expressed as a percentage response (relative efficacy). Dose response curves were con-structed using Graphpad Prism (Graph Software Inc.) or using in house adapted software using a 4 parameter dose response model with variable slope (fit=(Bottom+(Top−Bottom)/(1+10^((LogEC50−x)*Hill Slope))res=(y−fit)). Results are compiled in the table below.
(In general: Activated receptors often draw arrestin, which recruitment assays turn into a signal.)

The nature of data set [2]: Metabolic stability: unbound intrinsic clearance in liver microsomes. The format is in vitro ADME. The following applies: rat; liver microsomes 0.25 mg protein/mL, 0.5 μM compound, pH 7.4, 37° C.; Cl int unbound=Cl int/fu mic; compounds used as acid addition salts; read-out: Cl int, mic unb. (r) (unbound intrinsic clearance). How it is done: Samples of the tested compounds (0.5 μM) were preincubated together with rat liver microsomes (0.25 mg of microsomal protein/mL) in 0.05 M potassium phosphate buffer of pH 7.4 in microtiter plates at 37° C. for 5 minutes. The reaction was started by adding NADPH (1.0 mM). After 0, 5, 10, 15, 20 and 30 minutes, an aliquot was removed, the reaction was cooled and stopped by adding twice the amount of quench solution consisting of acetonitrile/methanol 1:1, and containing […] carbutamide as internal standard. The samples were frozen until analyzed. The remaining concentration of undegraded test substance was determined by liquid chromatography-tandem mass spectrometry (LC-MS/MS). The half-life (t1/2) was determined from the gradient of the ratio of the signal of (test substance/internal standard)/unit time plot, allowing the calculation of the half-life of the test substance, assuming first order kinetics, from the decrease in the concentration of the compound with time. The microsomal clearance (mClint) was calculated as follows: mClint=((ln(2)/t 1/2)/Microsomal Protein Concentration (mg/ml))*1000, leading to the unit of uL/min/mg. The scaled clearance (mClin_scaled) was calculated as mCLint_scaled=m CLint*(Microsomal Yield (mg/kg BW))/1000000*60, leading to the units L/h/kg. The Microsomal Yield is defined by the specifics of the used microsomes. Calculations were modified from refer-ences: Di, The Society for Biomolecular Screening, 2003, 453-462; Obach, D M D, 1999 vol 27. N 11, 1350-1359.
A suspension of 0.25 mg/ml microsomal protein spiked with 0.5 μM of test compound was pipetted on one side of a HTDialysis device (HTDialysis LLC,37 Ledgewood Drive, Gales Fery Conn. 06335) separated by a membrane with a MWcut off 12-14 K. 50 mM K-Phosphate buffer (pH 7.4) was added on the other side of the well. After incubation at 37° C. for 4 h while shaking at 150 rpm, aliquots of both sides were taken, quenched with MeOH/ACN 1:1 and 0.2 μM of internal standard and frozen until analy-sis by LCMSMS.
Cl int unbound=Cl int/fu mic
The compounds were used in form of their respective acid addition salts.
(Liver microsomes are a subcellular fraction often used to study metabolism.)

T1 sequence (P28335 33-458): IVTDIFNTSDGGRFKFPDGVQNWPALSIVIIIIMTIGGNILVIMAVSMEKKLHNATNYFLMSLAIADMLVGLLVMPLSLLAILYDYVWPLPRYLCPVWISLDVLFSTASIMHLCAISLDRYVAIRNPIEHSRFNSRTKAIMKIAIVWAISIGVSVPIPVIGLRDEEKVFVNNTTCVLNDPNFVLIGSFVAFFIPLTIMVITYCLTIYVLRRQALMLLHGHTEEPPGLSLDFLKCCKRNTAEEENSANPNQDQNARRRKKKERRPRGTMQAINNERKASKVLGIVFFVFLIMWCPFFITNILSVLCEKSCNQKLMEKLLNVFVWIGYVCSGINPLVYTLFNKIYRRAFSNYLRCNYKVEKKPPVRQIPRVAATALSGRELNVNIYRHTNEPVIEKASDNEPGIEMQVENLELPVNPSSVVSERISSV
T1 sequence (P32121 whole entry partner): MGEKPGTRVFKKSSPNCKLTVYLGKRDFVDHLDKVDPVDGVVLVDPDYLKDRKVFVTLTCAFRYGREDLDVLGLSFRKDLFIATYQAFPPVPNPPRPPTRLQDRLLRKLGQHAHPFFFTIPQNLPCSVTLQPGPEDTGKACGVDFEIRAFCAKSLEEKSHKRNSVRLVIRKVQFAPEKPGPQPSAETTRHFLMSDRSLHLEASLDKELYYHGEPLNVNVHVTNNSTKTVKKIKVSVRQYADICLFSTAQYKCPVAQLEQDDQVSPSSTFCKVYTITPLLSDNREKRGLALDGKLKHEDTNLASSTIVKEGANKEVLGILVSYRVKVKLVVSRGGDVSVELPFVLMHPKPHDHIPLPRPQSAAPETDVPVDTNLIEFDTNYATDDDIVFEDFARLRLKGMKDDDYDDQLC

What is called EC50 is the midpoint of the concentration-response curve. In general, Emax refers to the maximal effect, on the per cent scale that the assay sets. On to `COc1cc(OCc2cc(F)cc(F)c2F)c(F)cc1CNC(=O)[C@@H]1CCCN1` [Example 2, (2S)—N-[[5-Fluoro-2-methoxy-4-[(2,3,5-trifluorophenyl)methoxy]phenyl]methyl]-pyrrolidine-2-carboxamide], for which, in data set [1], the EC50 is 5 to 15 nM and the Emax is over 70%. Further, the CLint scaled at 0.5 μM in data set [2] lay in the range of 1330 to 4170 mL/min/kg.
With `COc1cc(OCc2ccc(C(F)(F)F)nc2)c(F)cc1CNC(=O)[C@@H]1CCCN1` [Example 10, (2S)—N-[[5-fluoro-2-methoxy-4-[[6-(trifluoromethyl)-3-pyridyl]methoxy]phenyl]-methyl]pyrrolidine-2-carboxamide], in data set [1], the concentration for a half-maximal effect (EC50) lay in the range of 15 to 30 nM and the Emax is over 70%. The CLint scaled at 0.5 μM in data set [2] lay within 500 to 1330 mL/min/kg.
As to `COc1cc(OCCC(F)(F)F)c(F)cc1CNC(=O)[C@@H]1CCCN1` [Example 19, (2S)—N-[[5-Fluoro-2-methoxy-4-(3,3,3-trifluoropropoxy)phenyl]methyl]pyrrolidine-2-carboxamide], in data set [1], the EC50 was in the range of 15 to 30 nM and the Emax was over 70%. Moreover, the CLint scaled at 0.5 μM in data set [2] is under 500 mL/min/kg.
For `COc1cc(O[C@H]2CC[C@H](C(F)(F)F)CC2)c(F)cc1CNC(=O)[C@@H]1CCCN1` [Example 33, (S)—N-(5-Fluoro-4-((trans-4-trifluoromethyl-cyclohexyl)oxy)-2-methoxybenzyl)-pyrrolidine-2-carboxamide], in data set [1], the EC50 is under 5 nM and the Emax is over 70%. Besides, the CLint scaled at 0.5 μM in data set [2] is under 500 mL/min/kg.
